We go through four compounds from patent US6361995B1, “Protection of pancreatic β-cells during islet isolation and assessment of islet viability and candidate diabetes drugs after islet isolation” (NAB Research Foundation, priority 1999, dated 2002).

Assay [1] relates to RL2 antibody binding to p135. Briefly: Blocking of RL2 antibody immunoprecipitation of p135 by added sugars. Further details: species or system mouse. The conditions noted are these: 0.3 M added during the RL2 immunoprecipitation step (FIG. 3). On the procedure: Islets (100/condition) were incubated for 60 min with either 3 mM glucose (G3) or 28 mM glucose following pre-incubation with 5 mM streptozotocin (STZ). At the end of the incubation period, O-glycosylated proteins were immunoprecipitated with RL2 antibody in the presence of 0.3 M N-acetylglucosamine (GlcNAc), 0.3 M N-acetylgalactosamine (GalNAc), or 0.3 M glucosamine (GlcN) and analyzed by Western blotting as described in FIG. 1.
At the end of the experiment, all supernatant was removed from the tubes or dishes. One ml of ice-cold lysis buffer (50 mM HEPES, pH 7.40, 150 mM NaCl, 1% Triton X-100, 5 mM EDTA, 5 mM EGTA, 20 mM NaF, 20 mM Na4P2O7, 1 mM NaVO4, 1 mg/ml bacitracin, 1 mM phenylmethylsulfonylfluoride, 1 μg/ml leupeptin, 1 μg/ml aprotinin) was added to each tube or dish. Cells were scraped on ice into 1.5 ml conical screw cap Eppendorf tubes. Borosilicate tubes containing islets were vortexed for 30 sec and placed on ice for 30 min. Islet samples were vortexed for an additional minute before transfer to 1.5-ml conical screw cap Eppendorf tubes. All subsequent immunoprecipitation steps were performed at 4° C. Samples were centrifuged at 10,000×g for 15 min. […]

Assay [2] has as its system p135 (135 kD O-glycosylated protein) in isolated islets. Briefly: p135 O-glycosylation in isolated islets (RL2 immunoprecipitation and Western blotting). Particulars: for increase in p135 O-glycosylation: 5 mM, 60 min, islets isolated in 11 mM glucose and 1 mM L-glutamine; for effect on glucose-induced p135 O-glycosylation: 100 μM DON with 28 mM glucose. It counts as cell-based, rat. On the procedure:
(§1) In a typical experiment, islets were isolated aseptically from 3-4 male Sprague-Dawley rats. During surgery, the common bile duct of each pancreas was cannulated, and the pancreas was inflated with 20 ml of Hank's Balanced Salt Solution (HBSS). The distended pancreas was excised, and lymph nodes, fat, blood vessels, and bile ducts were removed under a stereo dissecting microscope. Tissue was chopped extensively and rinsed 5-6 times with HBSS. The tissue was digested with collagenase P (3 mg/ml tissue) at 37° C. for 3-4 min using a wrist action shaker. Digested tissue was rinsed 3-4 times with HBSS, and islets were purified on a discontinuous Ficoll gradient consisting of 27%, 23%, 20.5%, and 11% Ficoll in (25 mM) HEPES-HBSS buffer. Islets were harvested from the gradient and washed once with HBSS. Islets were washed 6 times in DMEM supplemented with 25 mM HEPES pH 7.40, 25 mM NaHCO3, 0.1% bovine serum albumin, 3 mM glucose, and 1 mM L-glutamine (complete DMEM). This isolation procedure typically provided 300-400 islets per rat, which were then used as described below. In selected experiments, islets were isolated as described above, except that all isolation buffers were supplemented t o contain 11 mM glucose and 1 mM L-glutamine.
(§2) Freshly isolated islets were placed into siliconized 16×100-mm round bottom, screw-cap tubes and pre-incubated for 30 min in 1 ml of complete DMEM. For each experiment, 100 islets were placed into each tube. Pre-incubation and all subsequent incubations were performed at 37° C. under an atmosphere of 95% O2/5% CO2. After 30 min, pre-incubation buffer was aspirated, and islets were incubated with complete DMEM supplemented with the appropriate secretagogue. At the end of the incubation period, the entire supernatant was removed for insulin radioimmunoassay. Islets were processed for subsequent immunoprecipitation as described below. For each experiment, insulin secretion in the control sample was set at 100% and all other results were expressed as percentages of control.
At the end of the experiment, all supernatant was removed from the tubes or dishes. One ml of ice-cold lysis buffer (50 mM HEPES, pH 7.40, 150 mM NaCl, 1% Triton X-100, 5 mM EDTA, 5 mM EGTA, 20 mM NaF, 20 mM Na4P2O7, 1 mM NaVO4, 1 mg/ml bacitracin, 1 mM phenylmethylsulfonylfluoride, 1 μg/ml leupeptin, 1 μg/ml aprotinin) was added to each tube or dish. Cells were scraped on ice into 1.5 ml conical screw cap Eppendorf tubes. Borosilicate tubes containing islets were vortexed for 30 sec and placed on ice for 30 min. Islet samples were vortexed for an additional minute before transfer to 1.5-ml conical screw cap Eppendorf tubes. All subsequent immunoprecipitation steps were performed at 4° C. Samples were centrifuged at 10,000×g for 15 min. The supernatant was transferred to a second 1.5-ml conical Eppendorf tube, and O-glycosylated proteins were immunoprecipitated for 2 h on a rocker with 2 μl of mouse monoclonal RL2 antibody, which selectively binds to O-glycosylated protein (21,22). After 2 h, 20 μl of protein A trisacryl beads (Pierce) preadsorbed with 20 μg of rabbit anti-mouse antibody (Sigma) were added to the tubes and the incubation was continued for an additional 2 hours. At the end of the incubation, beads were washed once with Wash Buffer 1 (150 mM NaCl, 10 mM HEPES, pH 7.40, 1% Triton X-100, and 0.1% SDS) and once with Wash Buffer 2 (10 mM HEPES, pH 7.40, 1% Triton X-100, and 0.1% SDS). After the final washing step, 25 μl of 2× sample buffer (100 mM Tris, pH 6.80, 4% SDS, 20% glycerol, and 20 μg/liter bromophenol blue) was added to each tube. Samples were vortexed for 30 sec, boiled for 5 min, and stored at −20° C. prior to subsequent analysis.
Samples were loaded onto 7.5% SDS-polyacrylamide gels. Colored molecular weight markers (Amersham) were run on each gel. Proteins were separated for 1 h at 175 V at room temperature using a Bio-Rad Mini-PROTEAN II dual slab cell. […]
(In general: A western blot detects proteins with antibodies after separation by electrophoresis.)

Another assay relates to isolated islets. The experiment in a line: Insulin secretion from isolated islets (radioimmunoassay). It counts as cell-based, rat. The conditions noted are these: for Insulin (secretion in isolated islets): islets isolated in 11 mM glucose and 1 mM L-glutamine. On the procedure: as §1, §2
Films were photographed using a Sony digital camera, and intensities of bands present on films were quantitated using the program NIH Image. All results are expressed as the mean±SEM, using the Windows-compatible version 2.98 of the program FigP (Biosoft, St. Louis, Mo.). Statistical analysis was performed using the same program. Data were analyzed by one-way analysis of variance followed by multiple comparisons between the means using the least significant difference test. A probability of p<0.05 was considered to indicate statistical significance.

Another assay has as its system β-TC3 cells. Briefly: Protein O-glycosylation in β-TC3 cells (RL2 immunoprecipitation and Western blotting). The format is cell-based. Particulars: 5 mM, 60 min after 30 min in 0 mM glucose (FIG. 8). As for the experimental part:
β-TC3 cells (passage 37) were obtained form the University of Pennsylvania Diabetes Center from Dr. D. Hanahan (University of California, San Francisco). β-TC3 cells were cultured in 10-cm dishes in the presence of RPMI 1640 medium supplemented with 10% fetal bovine serum, penicillin (75 μg/ml), streptomycin (50 μg/ml), and 2 mM L-glutamine. Cells were trypsinized and subcloned weekly. Media were changed twice weekly and on the day prior to an experiment, and insulin responsiveness to glucose and carbachol was routinely monitored. Cells were used between passages 38 and 55.
β-TC3 cells in 10-cm dishes were washed three times in Krebs'-HEPES buffer (25 mM HEPES, pH 7.40, 115 mM NaCl, 24 mM NaHCO3, 5 mM KCl, 2.5 mM CaCl2, 1 mM MgCl2) supplemented with 0.1% bovine serum albumin and 1 mM L-glutamine. Cells were pre-incubated in 5 ml of the same buffer for 30 min at 37° C. under an atmosphere of 95% air/5% CO2. After 30 min, the pre-incubation buffer was aspirated and cells were incubated at 37° C. under an atmosphere of 95% air/5% CO2 with 5 ml of Krebs'-HEPES buffer supplemented with the appropriate secretagogue. At the end of the incubation period, supernatant was removed for insulin radioimmunoassay. Cells left in the dishes were processed for subsequent immunoprecipitation as described below.
At the end of the experiment, all supernatant was removed from the tubes or dishes. […]

Another assay has as its system β-cells. Particulars: 50-100 mg/kg administered to a rat; development of diabetes; cited from earlier work.

Regarding `CC(=O)N[C@H]1C(O)O[C@H](CO)[C@H](O)[C@@H]1O` (stereo partly drawn) [GalNAc, N-acetylgalactosamine], in assay [1], the “inhibition of RL2 immunoprecipitation of p135” value is reported as “neither GalNAc nor glucosamine added at the same concentration as GlcNAc prevented”.

Consider `CN(N=O)C(=O)N[C@H]1C(O)O[C@H](CO)[C@@H](O)[C@@H]1O` (mixture of isomers) [streptozotocin], for which the “reversibility of p135 O-glycosylation” value in assay [2] (5 mM pre-incubation 30 min, then 3 or 28 mM glucose 30 min, then 3 mM glucose 30 min (FIG. 5)) is given as “not readily reversible”. Besides, in assay [2] (5 mM with 100 μM DON, 60 min (FIG. 4)), the “stimulation of p135 O-glycosylation in the presence of DON” value is listed as “able to increase p135 O-glycosylation”. For the same compound, the “increase in p135 O-glycosylation” value in assay [2] (compared to 3 mM glucose control (FIG. 7 experiment)) was 361.3±78.8%; in assay [2] (versus 3 mM glucose control (FIG. 2)), 333.9±66.8%. Besides, the “stimulation of p135 O-glycosylation” value in assay [2] (islets isolated in low glucose and no added L-glutamine, concentration not given) is “no consistent increase in p135 O-glycosylation”. The “Insulin (secretion in isolated islets)” value worked out at 147.1 ± 16.8% with isolated islets (5 mM, DON 0, 60 min, control 3 mM glucose = 100) and 115.6 ± 7.8% in the assay with isolated islets (5 mM, DON 100 (μM), 60 min, control 3 mM glucose = 100). In the assay on β-TC3 cells, the “O-glycosylation response of β-TC3 cells” value is “fail to undergo increased O-glycosylation”. Also, the “time to death of most of the β-cells” value in the assay with β-cells is at most 8 h.

As for `[N-]=[N+]=CC(=O)CC[C@H](N)C(=O)O` [DON, 6-diazo-5-oxonorleucine], the “effect on glucose-induced p135 O-glycosylation” value in assay [2] (60 min (FIG. 4)) is “inhibited”; in assay [2] (60 min (FIG. 4), listed as 5-diazo-oxo-norleucine), “completely blocked”. The “effect on glucose-induced insulin secretion” value with isolated islets (100 μM DON with 28 mM glucose, 60 min) was “no significant effect”. The “Insulin (secretion in isolated islets)” value in the assay on isolated islets (DON 100 (μM) in 3 mM glucose, 60 min, control 3 mM glucose without DON = 100) came to 160.6 ± 50.5%.

In the case of `CC(=O)N[C@H]1C(O)O[C@H](CO)[C@@H](O)[C@@H]1O` (stereo partly drawn) [GlcNAc, N-acetylglucosamine], the “inhibition of RL2 immunoprecipitation of p135” value in assay [1] is “completely inhibited”.
